Source: patent US5053415A, “Pyridine derivatives” (Imperial Chemical Industries PLC, priority 1988, dated 1991)

How the values were obtained:
[1] = molecular target: T1, thromboxane receptor (Homo sapiens, UniProt P21731); assay: test (b): blood platelet aggregation test, U46619-stimulated aggregation of human citrated platelet-rich plasma; type: cell-based; conditions: averaged over several concentrations
T1 construct: human, citrated, platelet-rich plasma; endogenous in cells; host or cells: human platelets in citrated platelet-rich plasma
T1 sequence (P21731 1-343): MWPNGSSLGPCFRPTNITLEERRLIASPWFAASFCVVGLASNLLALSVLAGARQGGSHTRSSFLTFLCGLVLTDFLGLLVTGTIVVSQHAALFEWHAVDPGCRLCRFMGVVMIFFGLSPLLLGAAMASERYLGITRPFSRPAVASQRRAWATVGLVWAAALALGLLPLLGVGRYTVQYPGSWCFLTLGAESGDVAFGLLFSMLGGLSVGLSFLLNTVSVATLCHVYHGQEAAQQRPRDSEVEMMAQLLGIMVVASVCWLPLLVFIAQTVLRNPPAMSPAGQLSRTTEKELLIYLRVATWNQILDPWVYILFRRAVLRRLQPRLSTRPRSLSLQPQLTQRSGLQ
Excerpt: (b) a blood platelet aggregation test based on that described by Born (Nature, 1962, 194, 927-929) and involving:
(i) aggregating human, citrated, platelet-rich plasma by addition of the TXA2 mimetic agent U46619 so that a dose-response curve is generated;
(ii) generating a dose-response curve for U46619 stimulated platlet aggregation in the presence of increasing amounts of test compound (generally in the range 10^-5 M to 10^-10 M); and
(iii) calculating a KB value indicating potency of TXA2 antagonism for the test compound, averaged over several concentrations, from the calculated 50% response value for U46619 aggregation in the presence and absence of test compound; or […]

[2] = molecular target: T2, TXA2 synthase (Homo sapiens, UniProt P24557); assay: test (e): human platelet microsomal TXA2 synthase inhibition (conversion of arachidonic acid to TXB2); type: biochemical
T2 construct: human platelet microsomal TXA2 synthase preparation; from tissue; host or cells: human platelet microsomes
T2 sequence (P24557 1-533): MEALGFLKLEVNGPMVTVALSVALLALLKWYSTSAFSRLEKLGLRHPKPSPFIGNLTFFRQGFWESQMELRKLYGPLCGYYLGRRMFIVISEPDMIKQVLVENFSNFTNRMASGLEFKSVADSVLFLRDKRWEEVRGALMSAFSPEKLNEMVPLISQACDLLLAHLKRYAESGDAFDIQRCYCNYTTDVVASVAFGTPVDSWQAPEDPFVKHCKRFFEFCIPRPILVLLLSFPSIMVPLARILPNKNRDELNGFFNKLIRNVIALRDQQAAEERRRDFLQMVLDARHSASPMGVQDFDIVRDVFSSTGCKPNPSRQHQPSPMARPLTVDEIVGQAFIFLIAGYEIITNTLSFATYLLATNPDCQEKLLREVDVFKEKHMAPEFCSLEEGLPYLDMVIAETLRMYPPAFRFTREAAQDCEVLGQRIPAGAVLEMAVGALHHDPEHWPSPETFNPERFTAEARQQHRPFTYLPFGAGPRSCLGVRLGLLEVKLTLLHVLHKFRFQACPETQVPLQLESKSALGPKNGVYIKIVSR

Kb [1]: 300 nM
IC50 [2]: 40 nM
SMILES: COc1ccc(OC(C)(C)[C@H]2OC[C@@H](C/C=C\CCC(=O)O)[C@@H](c3cccnc3)O2)cc1 (relative stereo) [Example 1, 4(Z)-6[(2,4,5-cis)-2-(1-(4-methoxyphenoxy)-1-methylethyl)-4-(3-pyridyl)-1,3-dioxan-5-yl]-hexenoic acid]
